Measured values taken from paper PMC6175941, “Hydrophobic alkyl chains substituted to the 8-position of cyclic nucleotides enhance activation of CNG and HCN channels by an intricate enthalpy - entropy compensation” (Scientific Reports, 2018).

Key:
[1] = test system: CNGA2:CNGA4:CNGB1b channels; design: method as in PMID 17665892; conditions: cited from earlier work
[2] = biological target: T1, CNGA2:CNGA4:CNGB1b channels (Rattus norvegicus, UniProt A0A8I5ZN27+Q00195+Q64359); assay: Activation and deactivation kinetics by concentration jumps, CNGA2:CNGA4:CNGB1b channels; format: cell-based
T1 construct: expressed in transfected cells; host or cells: Xenopus laevis oocytes co-injected with cRNAs (2:1:1); inside-out patches
T1 sequence (Q64359 whole entry, one chain of several): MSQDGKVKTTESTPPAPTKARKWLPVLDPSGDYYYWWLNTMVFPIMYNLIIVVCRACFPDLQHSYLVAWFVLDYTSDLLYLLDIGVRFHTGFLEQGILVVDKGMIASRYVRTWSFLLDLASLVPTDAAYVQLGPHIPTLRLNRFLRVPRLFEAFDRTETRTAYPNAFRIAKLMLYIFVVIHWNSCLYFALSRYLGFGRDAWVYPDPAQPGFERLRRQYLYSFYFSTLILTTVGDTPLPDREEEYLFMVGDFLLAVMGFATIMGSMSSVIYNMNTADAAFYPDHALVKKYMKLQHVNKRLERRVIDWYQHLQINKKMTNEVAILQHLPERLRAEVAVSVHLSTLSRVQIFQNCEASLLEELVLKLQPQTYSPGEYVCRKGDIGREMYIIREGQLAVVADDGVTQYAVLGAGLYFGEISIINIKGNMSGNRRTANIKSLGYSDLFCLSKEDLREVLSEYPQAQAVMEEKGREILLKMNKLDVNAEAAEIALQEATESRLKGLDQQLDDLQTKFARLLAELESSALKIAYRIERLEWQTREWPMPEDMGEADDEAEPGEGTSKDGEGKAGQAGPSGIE
T1 sequence (A0A8I5ZN27 1-858 isoform A0A8I5ZN27-2, one chain of several): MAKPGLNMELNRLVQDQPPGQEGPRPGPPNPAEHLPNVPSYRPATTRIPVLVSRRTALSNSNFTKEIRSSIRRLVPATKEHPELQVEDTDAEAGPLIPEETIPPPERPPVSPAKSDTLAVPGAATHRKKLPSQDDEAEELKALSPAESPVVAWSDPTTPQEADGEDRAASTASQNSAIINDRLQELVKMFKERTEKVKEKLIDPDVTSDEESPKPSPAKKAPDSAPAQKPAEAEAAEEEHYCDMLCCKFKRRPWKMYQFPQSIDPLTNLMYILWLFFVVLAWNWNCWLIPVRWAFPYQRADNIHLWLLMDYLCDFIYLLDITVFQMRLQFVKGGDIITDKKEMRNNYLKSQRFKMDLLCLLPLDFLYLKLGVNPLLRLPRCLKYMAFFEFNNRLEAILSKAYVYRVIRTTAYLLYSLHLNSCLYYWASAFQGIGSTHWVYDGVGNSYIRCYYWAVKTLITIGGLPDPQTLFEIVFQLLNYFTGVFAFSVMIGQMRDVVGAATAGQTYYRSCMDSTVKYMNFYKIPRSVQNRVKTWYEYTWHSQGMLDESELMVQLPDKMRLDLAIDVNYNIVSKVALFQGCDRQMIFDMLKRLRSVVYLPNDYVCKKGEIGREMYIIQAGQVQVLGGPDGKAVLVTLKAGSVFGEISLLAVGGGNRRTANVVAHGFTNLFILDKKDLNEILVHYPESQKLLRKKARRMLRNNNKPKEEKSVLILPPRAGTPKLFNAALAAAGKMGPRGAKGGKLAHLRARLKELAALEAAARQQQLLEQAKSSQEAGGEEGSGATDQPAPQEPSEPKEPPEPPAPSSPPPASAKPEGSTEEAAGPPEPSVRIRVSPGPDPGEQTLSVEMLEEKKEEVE
Excerpt: (§1) We applied concentration jumps from zero to a defined level and back to zero, yielding the time constants τa and τd, respectively (c.f. Methods section). If the enhancement of the apparent affinity is caused by solely accelerating the binding rate, τa would be decreased and τd would be unaffected. Conversely, if the hydrophobic alkyl chain enhances the apparent affinity by solely decelerating the unbinding rate, τd would be increased and τa could be increased preferentially at lower concentrations.
(§2) In experiments designed to record activation and deactivation kinetics in CNG channels, theta-glass pipettes were used in which one barrel contained control solution and the other barrel the test solution supplemented with the ligand. The theta-glass pipette was mounted on a piezo actuator which was controlled by the computer controlling the voltage protocols. The effective switch time of the solution exchange, t10–90, determined by an open patch pipette and different solutions in the barrels, was negligible compared to the time courses of activation and deactivation to be considered. […]
(§3) The speed of activation and deactivation was determined by fitting the respective time courses with single exponentials yielding the time constant τ. […] To quantify the time course at a given cNMP concentration for a number of measurements τwm and τ were treated equally. […]

CNGA2 channels = biological target: T2, CNGA2 channels (Rattus norvegicus, UniProt Q00195); assay: Activation and deactivation kinetics by concentration jumps, CNGA2 channels; format: cell-based
T2 construct: expressed in transfected cells; host or cells: Xenopus laevis oocytes injected with cRNA; inside-out patches
T2 sequence (Q00195 1-664): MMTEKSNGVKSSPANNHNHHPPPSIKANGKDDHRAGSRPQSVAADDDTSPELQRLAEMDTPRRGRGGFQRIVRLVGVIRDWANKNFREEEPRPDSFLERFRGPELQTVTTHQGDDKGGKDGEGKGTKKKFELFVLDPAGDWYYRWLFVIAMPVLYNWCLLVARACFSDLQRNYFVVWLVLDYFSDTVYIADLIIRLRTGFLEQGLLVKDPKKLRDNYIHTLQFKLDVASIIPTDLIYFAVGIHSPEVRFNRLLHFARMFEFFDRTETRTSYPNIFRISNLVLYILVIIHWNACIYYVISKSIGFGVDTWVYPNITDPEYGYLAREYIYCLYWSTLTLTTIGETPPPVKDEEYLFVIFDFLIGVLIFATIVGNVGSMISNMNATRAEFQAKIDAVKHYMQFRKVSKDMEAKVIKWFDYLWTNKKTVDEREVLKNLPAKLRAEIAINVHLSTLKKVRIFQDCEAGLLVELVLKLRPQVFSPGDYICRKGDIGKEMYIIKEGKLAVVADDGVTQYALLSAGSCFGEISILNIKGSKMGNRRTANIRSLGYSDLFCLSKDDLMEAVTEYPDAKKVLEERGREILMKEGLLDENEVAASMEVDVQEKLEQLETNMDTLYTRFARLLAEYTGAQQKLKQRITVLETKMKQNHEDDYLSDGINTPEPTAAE
Excerpt: as §1, §2, §3

[3] = biological target: T3, homotetrameric CNGA2 channels (Rattus norvegicus, UniProt Q00195); assay: Concentration-activation relationship of homotetrameric CNGA2 channels, inside-out patches of Xenopus oocytes; format: cell-based
T3 construct: expressed in transfected cells; host or cells: Xenopus laevis oocytes injected with cRNA; inside-out patches
T3 sequence (Q00195 1-664): T2 sequence (Q00195 1-664)
Description: (§4) For each cNMP derivative a complete concentration-activation relationship was recorded, and the data points were fitted with the Hill equation (equation 1) yielding the concentration of half maximum activation (EC50) and the Hill coefficient H (Fig. 1b,c).
(§5) The subunits CNGA2 (accession No. AF126808), CNGA4 (accession No. U12623) and CNGB1b (accession No. AF068572) of rat olfactory channels as well as mouse HCN2 channels (NM008226) were subcloned in front of the T7 promoter of pGEMHEnew. The respective cRNAs were produced by using the mMESSAGE mMACHINE T7 Kit (Ambion, Austin, TX).
(§6) Oocytes at stages IV and V were injected with 50–130 ng of cRNA encoding either CNGA2, CNGA2:CNGA4:CNGB1b (2:1:1 ratio) or HCN2 channels either manually of or by means of an injection robot (RoboInject®). The injected oocytes were incubated at 18 °C for up to 6 days in Barth’s solution containing (in mM) 84 NaCl, 1 KCl, 2.4 NaHCO3, 0.82 MgSO4, 0.41 CaCl2, 0.33 Ca(NO3)2, 7.5 TRIS, cefuroxime (4.0 µg × ml^−1), and penicillin/streptomycin (100 µg × ml^−1), pH 7.4.
(§7) Macroscopic currents were recorded from inside-out patches of the oocytes by using standard patch-clamp techniques. The patch pipettes were pulled from quartz tubing (P-2000, Sutter Instrument, Novato, USA) with an outer and inner diameter of 1.0 and 0.7 mm (VITROCOM, New Jersey, USA). The corresponding pipette resistance was 0.9–2.3 MΩ. The bath and pipette solution contained (in mM): 150 KCl, 1 EGTA, 5 Hepes (pH 7.4 with KOH) for CNG measurements. For HCN measurements the bath solution contained 100 mM KCl, 10 mM EGTA, 10 mM HEPES (pH 7.2) and 120 mM KCl, 10 mM HEPES, and 1.0 mM CaCl2 (pH 7.2) in the pipette. Recording was carried out at room temperature using an Axopatch 200B amplifier (Axon Instruments, Foster City, CA). Electrophysiology was controlled by the Patchmaster-software (HEKA Elektronik Dr. Schulze GmbH, Lambrecht, Germany). The sampling rate was 5 kHz and the filter implemented in the amplifier (4-pole Bessel) was set to 2 kHz. Measurements in HCN2 channels were generally started 3.5 min after patch excision to minimize channel run down during the measurement[14],[27],[70]. The solutions with the ligand concentrations to be tested were applied via a multi-barrel device to the patches with a flow rate of 0.8 to 1.2 ml/min.
(§8) I is the actual current amplitude and Imax the maximum current amplitude at a saturating cNMP concentration specified for each cNMP and channel. EC50 is the cNMP concentration generating the half maximum current and H the Hill coefficient.

[4] = biological target: T4, heterotetrameric CNGA2:CNGA4:CNGB1b channels (Rattus norvegicus, UniProt A0A8I5ZN27+Q00195+Q64359); assay: Concentration-activation relationship of heterotetrameric CNGA2:CNGA4:CNGB1b channels, inside-out patches of Xenopus oocytes; format: cell-based; conditions: heterotetrameric CNGA2:CNGA4:CNGB1b channels, mean; for EC50: late current at +10 mV
T4 construct: expressed in transfected cells; host or cells: Xenopus laevis oocytes co-injected with cRNAs (2:1:1); inside-out patches
T4 sequence (Q64359 whole entry, one chain of several): as the sequence (Q64359 whole entry, one chain of several) above
T4 sequence (A0A8I5ZN27 1-858 isoform A0A8I5ZN27-2, one chain of several): as the sequence (A0A8I5ZN27 1-858 isoform A0A8I5ZN27-2, one chain of several) above
Description: as §4, §5, §6, §7, §8

[5] = biological target: T5, homotetrameric HCN2 channels (Mus musculus, UniProt O88703); assay: Concentration-activation relationship of homotetrameric HCN2 channels, inside-out patches of Xenopus oocytes; format: cell-based; conditions: homotetrameric HCN2 channels, mean; for EC50: pre-activation at -130 mV, instantaneous current at -100 mV
T5 construct: expressed in transfected cells; host or cells: Xenopus laevis oocytes injected with cRNA; inside-out patches
T5 sequence (O88703 1-863): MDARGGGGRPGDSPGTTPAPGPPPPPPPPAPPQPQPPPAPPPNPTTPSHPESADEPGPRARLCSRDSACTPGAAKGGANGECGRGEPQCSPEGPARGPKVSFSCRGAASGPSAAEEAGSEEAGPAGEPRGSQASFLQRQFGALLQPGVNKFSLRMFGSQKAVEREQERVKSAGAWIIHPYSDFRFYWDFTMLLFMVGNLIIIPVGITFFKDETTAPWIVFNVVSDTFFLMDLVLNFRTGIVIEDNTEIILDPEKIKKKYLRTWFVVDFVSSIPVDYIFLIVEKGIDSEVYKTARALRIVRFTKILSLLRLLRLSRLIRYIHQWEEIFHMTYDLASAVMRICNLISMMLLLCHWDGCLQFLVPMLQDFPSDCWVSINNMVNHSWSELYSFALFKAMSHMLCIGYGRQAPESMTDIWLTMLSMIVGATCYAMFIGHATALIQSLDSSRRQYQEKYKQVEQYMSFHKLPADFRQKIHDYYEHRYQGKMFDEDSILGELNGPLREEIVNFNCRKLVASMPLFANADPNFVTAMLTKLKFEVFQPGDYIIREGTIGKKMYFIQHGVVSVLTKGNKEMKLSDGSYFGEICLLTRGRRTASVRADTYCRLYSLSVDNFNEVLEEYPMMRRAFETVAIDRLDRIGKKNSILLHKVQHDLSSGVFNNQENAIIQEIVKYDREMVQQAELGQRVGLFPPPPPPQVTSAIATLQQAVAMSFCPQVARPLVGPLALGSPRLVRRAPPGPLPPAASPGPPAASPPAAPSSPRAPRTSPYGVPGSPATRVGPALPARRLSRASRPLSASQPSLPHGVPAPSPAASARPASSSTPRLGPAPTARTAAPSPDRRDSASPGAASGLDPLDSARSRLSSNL
Description: as §5
as §6, with “The oocytes were exposed to collagenase A (3 mg/ml; Roche, Grenzach-Wyhlen, Germany) for 105 min in Ca^2+-free Barth’s solution containing (in mM) 82.5 NaCl, 2 KCl, 1 MgCl2 2, and 5 Hepes, pH 7.4. Oocytes” for “Oocytes”
as §7, §8

[6] = homotetrameric CNGA2 channels, late current at +10 mV, mean
[7] = homotetrameric CNGA2 channels, mean

Compound | EC50 [1] | deactivation compared to the effect with CNGA2 channels ([2]; 10 µM) | activation time constant τa ([2]; low concentrations) | deactivation time constant τd compared to cGMP (1G) (CNGA2 channels; all tested concentrations) | activation time constant τa compared to cGMP (1G) (CNGA2 channels; at concentrations lower than 1 µM) | EC50 [3, 6] | H (Hill coefficient) [3, 7] | EC50 [4] | H (Hill coefficient) [4] | H (Hill coefficient) [5] | EC50 [5] | EC50 ([3]; CNGA2 channels, numeric mean values of box plots (Fig. 2a,b, Fig. 3) and text)
Nc1nc2c(nc(Sc3ccc(Cl)cc3)n2C2O[C@@H]3COP(=O)(O)O[C@H]3[C@H]2O)c(=O)[nH]1 (stereo in doubt) [8-pCPT-cGMP] | 73 nM | – | – | – | – | – | – | – | – | – | – | –
CC(=O)NCCCCCCSc1nc2c(=O)[nH]c(N)nc2n1C1OC2COP(=O)(O)OC2C1O (stereo not shown) [5G, 8-(Ac)AHT-cGMP] | – | slowed to a much lower degree | not affected | approximately an order of magnitude increased | larger | 80 nM | 2.7 | 230 nM | 2.0 | – | – | –
CC(=O)NCCCCCCCCCCSc1nc2c(N)ncnc2n1C1OC2COP(=O)(O)OC2C1O (stereo not shown) [7A, 8-(Ac)ADT-cAMP] | – | – | – | – | – | 2300 nM | 2.4 | 470 nM | 2.7 | 1.5 | 14.6 nM | –
CC(=O)NCCOCCOCCSc1nc2c(N)ncnc2n1C1OC2COP(=O)(O)OC2C1O (stereo not shown) [8A, 8-(Ac)APT-cAMP] | – | – | – | – | – | 24900 nM | 2.4 | 6000 nM | 2.2 | 0.9 | 144 nM | –
CC(=O)NCC(=O)NCCSc1nc2c(N)ncnc2n1C1OC2COP(=O)(O)OC2C1O (stereo not shown) [10A, 8-(Ac)AGET-cAMP] | – | – | – | – | – | 34200 nM | 2.1 | 6600 nM | 2.2 | 1.5 | 96.7 nM | 34300 nM
